# Measured values reported in patent US20060183119A1, “Method for determining predisposition to a physiological reaction in a patient” (UNIVERSITE LAVAL, priority 2002, published 2006).
# Positions count from the first letter of the chain named.
# Legend:
# Assay type in all cases: in vitro ADME
# human liver microsomes = assay: SN-38 glucuronidation kinetics with commercially available human liver microsomes
# Excerpt: (§1) For the determination of Vmax and Km.
# UGT1A7*3 = target: T1, UGT1A7*3 (Homo sapiens, UniProt Q9HAW7, N129K/R131K/W208R); assay: SN-38 glucuronidation by microsomes of HEK293 cells expressing UGT1A7*3; set-up: key to Function (SN-38G formation versus *1 allele): High: no significant difference in activity compared to *1 allele.; Low: significantly lower SN-38G formation versus *1 allele
# T1 construct: expressed in transfected cells
# T1 sequence (Q9HAW7 26-530 N129K/R131K/W208R): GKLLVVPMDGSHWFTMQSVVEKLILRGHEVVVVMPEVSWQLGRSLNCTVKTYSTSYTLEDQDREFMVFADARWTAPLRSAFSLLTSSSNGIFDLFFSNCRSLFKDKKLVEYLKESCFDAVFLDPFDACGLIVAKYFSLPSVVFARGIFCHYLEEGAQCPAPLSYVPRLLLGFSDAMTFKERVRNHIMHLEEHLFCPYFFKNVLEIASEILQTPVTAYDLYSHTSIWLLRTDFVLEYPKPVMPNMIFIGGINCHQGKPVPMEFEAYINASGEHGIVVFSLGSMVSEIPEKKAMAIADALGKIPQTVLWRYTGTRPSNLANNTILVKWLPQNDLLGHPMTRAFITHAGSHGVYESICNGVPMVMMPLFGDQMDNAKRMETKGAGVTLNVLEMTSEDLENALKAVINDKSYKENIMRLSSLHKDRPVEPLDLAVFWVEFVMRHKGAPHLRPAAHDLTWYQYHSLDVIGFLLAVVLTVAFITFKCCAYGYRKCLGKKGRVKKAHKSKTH
# Procedure: (§2) Western blot analyses of UGT1A7 and UGT1A9 variants expressed in HEK293 cells were performed on microsomal proteins (10 μg) separated on a 10% SDS-polyacrylamide gel. After transferring the proteins, the membranes were probed with an anti-UGT1A RC-71 polyclonal antibody and with an anti-calnexin antibody. The relative levels of UGT1A9 (a) and UGT1A7 proteins (b) were determined by semi-quantitative densitometric analysis of the Enhanced chemiluminescence (ECL) image. The in vitro SN-38 activity was assessed using microsomal fractions prepared from HEK293 cells expressing the *1 and variant UGT1A9 (c) and UGT1A7 (d) alleles and incubated with 5 μM of SN-38 as described in Materials and Methods.
# as §1
# UGT1A7*1 = target: T2, UGT1A7*1 (Homo sapiens, UniProt Q9HAW7); assay: SN-38 glucuronidation by microsomes of HEK293 cells expressing UGT1A7*1; set-up: key to Function (SN-38G formation versus *1 allele): High: no significant difference in activity compared to *1 allele.; Low: significantly lower SN-38G formation versus *1 allele
# T2 construct: expressed in transfected cells
# T2 sequence (Q9HAW7 26-530): T1 sequence (Q9HAW7 26-530 N129K/R131K/W208R) with K104N, K106R, R183W
# Procedure: as §2, §1
# UGT1A7*4 = target: T3, UGT1A7*4 (Homo sapiens, UniProt Q9HAW7, W208R); assay: SN-38 glucuronidation by microsomes of HEK293 cells expressing UGT1A7*4; set-up: key to Function (SN-38G formation versus *1 allele): High: no significant difference in activity compared to *1 allele.; Low: significantly lower SN-38G formation versus *1 allele
# T3 construct: expressed in transfected cells
# T3 sequence (Q9HAW7 26-530 W208R): T1 sequence (Q9HAW7 26-530 N129K/R131K/W208R) with K104N, K106R
# Procedure: as §2, §1
# UGT1A7*6 = target: T4, UGT1A7*6 (Homo sapiens, UniProt Q9HAW7, E139D); assay: SN-38 glucuronidation by microsomes of HEK293 cells expressing UGT1A7*6; set-up: key to Function (SN-38G formation versus *1 allele): High: no significant difference in activity compared to *1 allele.; Low: significantly lower SN-38G formation versus *1 allele
# T4 construct: expressed in transfected cells
# T4 sequence (Q9HAW7 26-530 E139D): T1 sequence (Q9HAW7 26-530 N129K/R131K/W208R) with K104N, K106R, E114D, R183W
# Procedure: as §2, §1
structure (smiles),measurement,setting,value
"CCc1c2c(nc3ccc(O)cc13)-c1cc3c(c(=O)n1C2)COC(=O)[C@]3(O)CC [SN-38, 7-ethyl-10-hydroxycamptothecin]",Km,"human liver microsomes; SN-38, LCQ detector",6.8 ± 3 µM
same,Km,"human liver microsomes; SN-38, fluorescent detection",4.8 ± 0.8 µM
same,SN-38 glucuronidating activity of the allele (in words),UGT1A7*3,low
same,Function (SN-38G formation versus *1 allele),UGT1A7*3; in vitro experiments,Low
same,SN-38 glucuronidating activity of the allele (in words),UGT1A7*1,highest
same,Function (SN-38G formation versus *1 allele),UGT1A7*1; in vitro experiments,High
same,SN-38 glucuronidating activity of the allele (in words),UGT1A7*4,low
same,Function (SN-38G formation versus *1 allele),UGT1A7*4; in vitro experiments,Low
same,SN-38 glucuronidating activity of the allele (in words),UGT1A7*6,highest
same,Function (SN-38G formation versus *1 allele),UGT1A7*6; in vitro experiments,High
